Converted amounts (≈) assume the structure as drawn.
What was measured:
[1] = tested on: Aeromonas hydrophila; experiment: Antibacterial activity against Aeromonas hydrophila ATCC 95080; assay type: functional
[2] = tested on: Acinetobacter baumannii; experiment: Antibacterial activity against Acinetobacter baumannii ATCC 02026; assay type: functional
[3] = tested on: Escherichia coli; experiment: Antibacterial activity against Escherichia coli; assay type: functional
[4] = Acid dissociation constant, pKa for SH group of the compound in DMSO-water mixture at 25 +/- 0.1 degC by potentiometric method; assay type: physicochemical
[5] = tested on: Candida parapsilosis; experiment: Antifungal activity against Candida parapsilosis ATCC 22019 after 48 hrs by microdilution broth method; assay type: functional; settings: Lodderomyces parapsilosis, ATCC 22019, 48 h
[6] = tested on: Nakaseomyces glabratus; experiment: Antifungal activity against Candida glabrata ATCC 90030 after 48 hrs by microdilution broth method; assay type: functional; settings: ATCC 90030, 48 h
[7] = Acid dissociation constant, pKa for OH group of the compound in DMSO-water mixture at 25 +/- 0.1 degC by potentiometric method; assay type: physicochemical
[8] = tested on: Staphylococcus aureus; experiment: Antibacterial activity against Staphylococcus aureus ATCC 25925; assay type: functional
[9] = tested on: Bacillus spizizenii; experiment: Antibacterial activity against Bacillus subtilis ATCC 6633; assay type: functional
[10] = tested on: Mycobacterium tuberculosis; experiment: Antimycobacterial activity against Mycobacterium tuberculosis H37Rv after 7 days by REMA; assay type: functional; settings: 168 h
[11] = Acid dissociation constant, pKa for NH group of the compound in DMSO-water mixture at 25 +/- 0.1 degC by potentiometric method; assay type: physicochemical
[12] = tested on: Candida tropicalis; experiment: Antifungal activity against Candida tropicalis ATCC 750 after 48 hrs by microdilution broth method; assay type: functional; settings: ATCC 750, 48 h

Structure (SMILES)	MIC [1] [µg/mL]	MIC [2] [µg/mL]	MIC [3] [µg/mL]	pKa [4]	MIC [5] [µg/mL]	MIC [6] [µg/mL]	pKa [7]	MIC [8] [µg/mL]	MIC [9] [µg/mL]	MIC [10] [µg/mL]	pKa [11]	MIC [12] [µg/mL]
COC(=O)[C@H]1[C@@H](C(=O)OC)C(c2ccccc2)(c2ccccc2)N(c2nc(-c3ccccc3)c(C(=O)c3ccc(Br)cc3)s2)[C@H]1C(=O)OC	62.5 (≈ 84.5 µM)	62.5 (≈ 84.5 µM)	125 (≈ 169 µM)	6.02	125 (≈ 169 µM)	31.2 (≈ 42.3 µM)	9.23	125 (≈ 169 µM)	62.5 (≈ 84.5 µM)	3.91 (≈ 5.29 µM)	3.27	125 (≈ 169 µM)
COC(=O)[C@H]1C[C@@H](C(=O)OC)C(c2ccccc2)(c2ccccc2)N1c1nc(-c2ccccc2)c(C(=O)c2ccccc2)s1	250 (≈ 415 µM)	250 (≈ 415 µM)	125 (≈ 207 µM)	6.58	62.5 (≈ 104 µM)	31.2 (≈ 51.8 µM)	9.67	125 (≈ 207 µM)	125 (≈ 207 µM)	15.6 (≈ 25.9 µM)	2.99	62.5 (≈ 104 µM)
COC(=O)[C@H]1C[C@@H](C(=O)OC)C(c2ccccc2)(c2ccccc2)N1c1nc(-c2ccccc2)c(C(=O)c2ccc(C#N)cc2)s1	250 (≈ 398 µM)	250 (≈ 398 µM)	125 (≈ 199 µM)	5.61	62.5 (≈ 99.6 µM)	31.2 (≈ 49.8 µM)	8.67	125 (≈ 199 µM)	250 (≈ 398 µM)	15.6 (≈ 24.9 µM)	3.78	62.5 (≈ 99.6 µM)
COC(=O)[C@H]1C[C@@H](C(=O)OC)C(c2ccccc2)(c2ccccc2)N1c1nc(-c2ccccc2)c(C(=O)c2ccc(OC)cc2)s1	125 (≈ 198 µM)	250 (≈ 395 µM)	250 (≈ 395 µM)	6.31	125 (≈ 198 µM)	62.5 (≈ 98.8 µM)	10	250 (≈ 395 µM)	250 (≈ 395 µM)	15.6 (≈ 24.7 µM)	2.46	62.5 (≈ 98.8 µM)
COC(=O)[C@H]1C[C@@H](S(=O)(=O)c2ccccc2)C(c2ccccc2)(c2ccccc2)N1c1nc(-c2ccccc2)c(C(=O)c2ccc(F)cc2)s1	62.5 (≈ 88.9 µM)	62.5 (≈ 88.9 µM)	125 (≈ 178 µM)	5.84	62.5 (≈ 88.9 µM)	31.2 (≈ 44.5 µM)	8.73	125 (≈ 178 µM)	62.5 (≈ 88.9 µM)	1.96 (≈ 2.79 µM)	3.4	62.5 (≈ 88.9 µM)
COC(=O)[C@H]1C[C@@H](S(=O)(=O)c2ccccc2)C(c2ccccc2)(c2ccccc2)N1c1nc(-c2ccccc2)c(C(=O)c2ccc(C#N)cc2)s1	62.5 (≈ 88 µM)	62.5 (≈ 88 µM)	125 (≈ 176 µM)	5.78	62.5 (≈ 88 µM)	31.2 (≈ 44 µM)	8.83	125 (≈ 176 µM)	62.5 (≈ 88 µM)	3.91 (≈ 5.51 µM)	3.56	62.5 (≈ 88 µM)
COC(=O)[C@H]1[C@@H](C(=O)OC)C(c2ccccc2)(c2ccccc2)N(c2nc(-c3ccccc3)c(C(=O)c3ccc(C#N)cc3)s2)[C@H]1C(=O)OC	62.5 (≈ 91.1 µM)	62.5 (≈ 91.1 µM)	125 (≈ 182 µM)	5.66	31.2 (≈ 45.6 µM)	31.2 (≈ 45.6 µM)	8.9	125 (≈ 182 µM)	62.5 (≈ 91.1 µM)	7.81 (≈ 11.4 µM)	3.53	62.5 (≈ 91.1 µM)
COC(=O)[C@H]1C[C@@H](C(=O)OC)C(c2ccccc2)(c2ccccc2)N1c1nc(-c2ccccc2)c(C(=O)c2ccc(Br)cc2)s1	250 (≈ 367 µM)	125 (≈ 183 µM)	250 (≈ 367 µM)	5.99	31.2 (≈ 45.8 µM)	62.5 (≈ 91.7 µM)	9.91	250 (≈ 367 µM)	250 (≈ 367 µM)	7.81 (≈ 11.5 µM)	3.11	62.5 (≈ 91.7 µM)
COC(=O)[C@H]1[C@@H](C(=O)OC)C(c2ccccc2)(c2ccccc2)N(c2nc(-c3ccccc3)c(C(=O)c3ccc(OC)cc3)s2)[C@H]1C(=O)OC	62.5 (≈ 90.5 µM)	62.5 (≈ 90.5 µM)	250 (≈ 362 µM)	6.77	62.5 (≈ 90.5 µM)	31.2 (≈ 45.2 µM)	10.2	125 (≈ 181 µM)	125 (≈ 181 µM)	15.6 (≈ 22.6 µM)	2.83	62.5 (≈ 90.5 µM)
COC(=O)[C@H]1C[C@@H](C(=O)OC)C(c2ccccc2)(c2ccccc2)N1c1nc(-c2ccccc2)c(C(=O)c2ccc(F)cc2)s1	125 (≈ 201 µM)	250 (≈ 403 µM)	125 (≈ 201 µM)	6.09	62.5 (≈ 101 µM)	62.5 (≈ 101 µM)	9.69	125 (≈ 201 µM)	250 (≈ 403 µM)	15.6 (≈ 25.2 µM)	2.63	62.5 (≈ 101 µM)
COC(=O)[C@H]1C[C@@H](S(=O)(=O)c2ccccc2)C(c2ccccc2)(c2ccccc2)N1c1nc(-c2ccccc2)c(C(=O)c2ccccc2)s1	62.5 (≈ 91.3 µM)	31.2 (≈ 45.6 µM)	125 (≈ 183 µM)	5.9	62.5 (≈ 91.3 µM)	31.2 (≈ 45.6 µM)	8.64	125 (≈ 183 µM)	62.5 (≈ 91.3 µM)	3.91 (≈ 5.71 µM)	3.26	31.2 (≈ 45.6 µM)
COC(=O)[C@H]1C[C@@H](S(=O)(=O)c2ccccc2)C(c2ccccc2)(c2ccccc2)N1c1nc(-c2ccccc2)c(C(=O)c2ccc(OC)cc2)s1	62.5 (≈ 87.4 µM)	62.5 (≈ 87.4 µM)	125 (≈ 175 µM)	6.01	62.5 (≈ 87.4 µM)	31.2 (≈ 43.7 µM)	9.28	125 (≈ 175 µM)	62.5 (≈ 87.4 µM)	3.91 (≈ 5.47 µM)	3.35	62.5 (≈ 87.4 µM)
COC(=O)[C@H]1[C@@H](C(=O)OC)C(c2ccccc2)(c2ccccc2)N(c2nc(-c3ccccc3)c(C(=O)c3ccccc3)s2)[C@H]1C(=O)OC	62.5 (≈ 94.6 µM)	62.5 (≈ 94.6 µM)	125 (≈ 189 µM)	5.81	62.5 (≈ 94.6 µM)	31.2 (≈ 47.3 µM)	8.5	125 (≈ 189 µM)	62.5 (≈ 94.6 µM)	15.6 (≈ 23.6 µM)	3.35	62.5 (≈ 94.6 µM)
COC(=O)[C@H]1[C@@H](C(=O)OC)C(c2ccccc2)(c2ccccc2)N(c2nc(-c3ccccc3)c(C(=O)c3ccc(F)cc3)s2)[C@H]1C(=O)OC	62.5 (≈ 92.1 µM)	62.5 (≈ 92.1 µM)	125 (≈ 184 µM)	6.37	62.5 (≈ 92.1 µM)	31.2 (≈ 46 µM)	10.2	125 (≈ 184 µM)	62.5 (≈ 92.1 µM)	15.6 (≈ 23 µM)	2.73	62.5 (≈ 92.1 µM)
COC(=O)[C@H]1C[C@@H](S(=O)(=O)c2ccccc2)C(c2ccccc2)(c2ccccc2)N1c1nc(-c2ccccc2)c(C(=O)c2ccc(Br)cc2)s1	62.5 (≈ 81.8 µM)	31.2 (≈ 40.9 µM)	125 (≈ 164 µM)	5.99	62.5 (≈ 81.8 µM)	31.2 (≈ 40.9 µM)	9.53	125 (≈ 164 µM)	62.5 (≈ 81.8 µM)	0.98 (≈ 1.28 µM)	2.97	62.5 (≈ 81.8 µM)
CC1(C)S[C@@H]2[C@H](NC(=O)[C@H](N)c3ccccc3)C(=O)N2[C@H]1C(=O)O [AMPICILLIN]	31.2 (≈ 89.4 µM)	125 (≈ 358 µM)	15.6 (≈ 44.7 µM)					31.2 (≈ 89.4 µM)	0.98 (≈ 2.8 µM)			
CC[C@@H](CO)NCCN[C@@H](CC)CO [ETHAMBUTOL]										1.96 (≈ 9.59 µM)		
OC(Cn1cncn1)(Cn1cncn1)c1ccc(F)cc1F [FLUCONAZOLE]					3.9 (≈ 12.7 µM)	3.9 (≈ 12.7 µM)						15.6 (≈ 51 µM)
NNC(=O)c1ccncc1 [ISONIAZID]										0.98 (≈ 7.15 µM)		

Reference: ChEMBL document CHEMBL4184279, “Synthesis, antimicrobial activity and acid dissociation constants of methyl 5,5-diphenyl-1-(thiazol-2-yl)pyrrolidine-2-carboxylate derivatives” (Bioorg Med Chem Lett, 2018)
